# Assay results: patent US7300946B2, “N-(substituted arylmethyl)-4-(disubstituted methyl) piperidines and pyridines” (Bayer CropScience AG, priority 2002, dated 2007)
# System: tobacco budworm (Heliothis virescens [Fabricius])
# Experiment: surface-treated diet test against the tobacco budworm
# Assay type: in vivo
# Details: tobacco budworm second instar larvae, surface-treated diet, 0.25 millimoles of candidate insecticide on the surface of the diet, five-day exposure; for Percent Mortality: compared to total number of insects infested; for Percent Growth Inhibition: inhibition of insect weight relative to untreated controls
# In short: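 Wheat germ artificial diet surface-treated with 40 µL of 50 mM DMSO stock diluted 1:7 in 1:1 water/acetone (0.25 millimolar on diet), or sub-multiples for rate tests. One second-instar larva per well, 25° C, 60% RH, 5 days; percent weight inhibition vs DMSO controls and percent mortality.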
Structure (SMILES),Percent Mortality,Percent Growth Inhibition
O=C(Nc1ccc(F)cc1)OC(c1ccc(C(F)(F)F)cc1)C1CCN(Cc2ccc(-c3csnn3)cc2)CC1 (stereo not drawn) [Compound 559],17%,97%
O=C(Nc1cc(F)cc(F)c1)OC(c1ccc(C(F)(F)F)cc1)C1CCN(Cc2ccc(-c3csnn3)cc2)CC1 (stereo not drawn) [Compound 560],33%,96%
O=C(Nc1ccc(Cl)cc1)OC(c1ccc(C(F)(F)F)cc1)C1CCN(Cc2ccc(Oc3nsnc3Cl)cc2)CC1 (stereo not drawn) [Compound 561],50%,100%
O=C(Nc1cc(F)cc(F)c1)OC(c1ccc(C(F)(F)F)cc1)C1CCN(Cc2ccc(NC3=NCCO3)cc2)CC1 (stereo not drawn) [Compound 563],0%,96%
CCn1nnc(-c2ccc(CN3CCC(C(OC(=O)Nc4ccc(Cl)cc4)c4ccccc4)CC3)cc2)n1 (stereo not drawn) [Compound 564],100%,100%
CCn1nnc(-c2ccc(CN3CCC(C(OC(=O)Nc4ccc(C(F)(F)F)cc4)c4ccccc4)CC3)cc2)n1 (stereo not drawn) [Compound 565],100%,100%
CCn1nnc(-c2ccc(CN3CCC(C(OC(=O)Nc4cc(F)cc(C(F)(F)F)c4)c4ccccc4)CC3)cc2)n1 (stereo not drawn) [Compound 566],100%,100%
CCn1nnc(-c2ccc(CN3CCC(C(OC(=O)Nc4ccc(Cl)cc4)c4ccccc4Cl)CC3)cc2)n1 (stereo not drawn) [Compound 567],100%,100%
CCn1nnc(-c2ccc(CN3CCC(C(OC(=O)Nc4ccc(Cl)c(Cl)c4)c4ccccc4Cl)CC3)cc2)n1 (stereo not drawn) [Compound 568],100%,100%
CCn1nnc(-c2ccc(CN3CCC(C(OC(=O)Nc4ccc(F)c(F)c4)c4ccccc4Cl)CC3)cc2)n1 (stereo not drawn) [Compound 569],100%,100%
CCn1nnc(-c2ccc(CN3CCC(C(OC(=O)Nc4cc(F)cc(F)c4)c4ccccc4Cl)CC3)cc2)n1 (stereo not drawn) [Compound 570],100%,100%
CCn1nnc(-c2ccc(CN3CCC(C(OC(=O)Nc4ccc(C(F)(F)F)cc4)c4ccccc4Cl)CC3)cc2)n1 (stereo not drawn) [Compound 571],100%,100%
CCn1nnc(-c2ccc(CN3CCC(C(OC(=O)Nc4ccc(Cl)cc4)c4ccc(Cl)c(Cl)c4)CC3)cc2)n1 (stereo not drawn) [Compound 572],100%,100%
CCn1nnc(-c2ccc(CN3CCC(C(OC(=O)Nc4ccc(Cl)c(Cl)c4)c4ccc(Cl)c(Cl)c4)CC3)cc2)n1 (stereo not drawn) [Compound 573],100%,100%
CCn1nnc(-c2ccc(CN3CCC(C(OC(=O)Nc4ccc(F)c(F)c4)c4ccc(Cl)c(Cl)c4)CC3)cc2)n1 (stereo not drawn) [Compound 574],100%,100%
CCn1nnc(-c2ccc(CN3CCC(C(OC(=O)Nc4cc(F)cc(F)c4)c4ccc(Cl)c(Cl)c4)CC3)cc2)n1 (stereo not drawn) [Compound 575],100%,100%
CCn1nnc(-c2ccc(CN3CCC(C(OC(=O)Nc4ccc(C(F)(F)F)cc4)c4ccc(Cl)c(Cl)c4)CC3)cc2)n1 (stereo not drawn) [Compound 576],100%,100%

Structure (SMILES),Percent Mortality,Percent Growth Inhibition
CCn1nnc(-c2ccc(CN3CCC(C(OC(=O)Nc4ccc(Cl)cc4)c4cc(Cl)cc(Cl)c4)CC3)cc2)n1 (stereo not drawn) [Compound 577],100%,100%
CCn1nnc(-c2ccc(CN3CCC(C(OC(=O)Nc4ccc(Cl)c(Cl)c4)c4cc(Cl)cc(Cl)c4)CC3)cc2)n1 (stereo not drawn) [Compound 578],100%,100%
CCn1nnc(-c2ccc(CN3CCC(C(OC(=O)Nc4ccc(F)c(F)c4)c4cc(Cl)cc(Cl)c4)CC3)cc2)n1 (stereo not drawn) [Compound 579],100%,100%
CCn1nnc(-c2ccc(CN3CCC(C(OC(=O)Nc4cc(F)cc(F)c4)c4cc(Cl)cc(Cl)c4)CC3)cc2)n1 (stereo not drawn) [Compound 580],100%,100%
CCn1nnc(-c2ccc(CN3CCC(C(OC(=O)Nc4ccc(C(F)(F)F)cc4)c4cc(Cl)cc(Cl)c4)CC3)cc2)n1 (stereo not drawn) [Compound 581],100%,100%
CCn1nnc(-c2ccc(CN3CCC(C(OC(=O)Nc4ccc(Cl)cc4)c4cccc(F)c4)CC3)cc2)n1 (stereo not drawn) [Compound 582],100%,100%
CCn1nnc(-c2ccc(CN3CCC(C(OC(=O)Nc4ccc(Cl)c(Cl)c4)c4cccc(F)c4)CC3)cc2)n1 (stereo not drawn) [Compound 583],100%,100%
CCn1nnc(-c2ccc(CN3CCC(C(OC(=O)Nc4ccc(F)c(F)c4)c4cccc(F)c4)CC3)cc2)n1 (stereo not drawn) [Compound 584],100%,100%
CCn1nnc(-c2ccc(CN3CCC(C(OC(=O)Nc4cc(F)cc(F)c4)c4cccc(F)c4)CC3)cc2)n1 (stereo not drawn) [Compound 585],100%,100%
CCn1nnc(-c2ccc(CN3CCC(C(OC(=O)Nc4cccc(C(F)(F)F)c4)c4cccc(F)c4)CC3)cc2)n1 (stereo not drawn) [Compound 586],100%,100%
CCn1nnc(-c2ccc(CN3CCC(C(OC(=O)Nc4ccc(C(F)(F)F)cc4)c4cccc(F)c4)CC3)cc2)n1 (stereo not drawn) [Compound 587],100%,100%
CCn1nnc(-c2ccc(CN3CCC(C(OC(=O)Nc4ccc(Cl)cc4)c4ccc(F)c(F)c4)CC3)cc2)n1 (stereo not drawn) [Compound 588],100%,100%
CCn1nnc(-c2ccc(CN3CCC(C(OC(=O)Nc4cc(F)cc(F)c4)c4ccc(F)c(F)c4)CC3)cc2)n1 (stereo not drawn) [Compound 589],100%,100%
CCn1nnc(-c2ccc(CN3CCC(C(OC(=O)Nc4ccc(Cl)cc4)c4cc(F)cc(F)c4)CC3)cc2)n1 (stereo not drawn) [Compound 590],100%,100%
CCn1nnc(-c2ccc(CN3CCC(C(OC(=O)Nc4ccc(Cl)c(Cl)c4)c4cc(F)cc(F)c4)CC3)cc2)n1 (stereo not drawn) [Compound 591],100%,100%
CCn1nnc(-c2ccc(CN3CCC(C(OC(=O)Nc4cc(F)cc(F)c4)c4cc(F)cc(F)c4)CC3)cc2)n1 (stereo not drawn) [Compound 593],100%,100%
